In patent publication US20210387966A1, “2-AMINO-N-HETEROARYL-NICOTINAMIDES AS NAV1.8 INHIBITORS” (Merck Sharp & Dohme Corp., priority 2018, published 2021):

Biological target: T1, human Nav1.8 channels (Homo sapiens, UniProt Q9Y5Y9)
T1 construct: expressed in transfected cells
Assay: Nav1.8 Qube automated patch-clamp assay
Type: cell-based
Conditions: human Nav1.8 stably expressed in HEK 293 cells; whole-cell voltage clamp, room temperature; resting or inactivated state not specified; read-out: IC50 values (nM) for Examples in the Nav1.8 Qube Assay
In short: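 Whole-cell patch clamp at room temperature on HEK293 cells stably expressing human Nav1.8. A 1 Hz train of ten 20 ms pulses to 10 mV from −90 mV holding, with −67 mV repolarization, was applied; first- and tenth-pulse peak currents gave resting and inactivated-state IC50s by Hill fitting.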

T1 sequence (Q9Y5Y9 whole entry): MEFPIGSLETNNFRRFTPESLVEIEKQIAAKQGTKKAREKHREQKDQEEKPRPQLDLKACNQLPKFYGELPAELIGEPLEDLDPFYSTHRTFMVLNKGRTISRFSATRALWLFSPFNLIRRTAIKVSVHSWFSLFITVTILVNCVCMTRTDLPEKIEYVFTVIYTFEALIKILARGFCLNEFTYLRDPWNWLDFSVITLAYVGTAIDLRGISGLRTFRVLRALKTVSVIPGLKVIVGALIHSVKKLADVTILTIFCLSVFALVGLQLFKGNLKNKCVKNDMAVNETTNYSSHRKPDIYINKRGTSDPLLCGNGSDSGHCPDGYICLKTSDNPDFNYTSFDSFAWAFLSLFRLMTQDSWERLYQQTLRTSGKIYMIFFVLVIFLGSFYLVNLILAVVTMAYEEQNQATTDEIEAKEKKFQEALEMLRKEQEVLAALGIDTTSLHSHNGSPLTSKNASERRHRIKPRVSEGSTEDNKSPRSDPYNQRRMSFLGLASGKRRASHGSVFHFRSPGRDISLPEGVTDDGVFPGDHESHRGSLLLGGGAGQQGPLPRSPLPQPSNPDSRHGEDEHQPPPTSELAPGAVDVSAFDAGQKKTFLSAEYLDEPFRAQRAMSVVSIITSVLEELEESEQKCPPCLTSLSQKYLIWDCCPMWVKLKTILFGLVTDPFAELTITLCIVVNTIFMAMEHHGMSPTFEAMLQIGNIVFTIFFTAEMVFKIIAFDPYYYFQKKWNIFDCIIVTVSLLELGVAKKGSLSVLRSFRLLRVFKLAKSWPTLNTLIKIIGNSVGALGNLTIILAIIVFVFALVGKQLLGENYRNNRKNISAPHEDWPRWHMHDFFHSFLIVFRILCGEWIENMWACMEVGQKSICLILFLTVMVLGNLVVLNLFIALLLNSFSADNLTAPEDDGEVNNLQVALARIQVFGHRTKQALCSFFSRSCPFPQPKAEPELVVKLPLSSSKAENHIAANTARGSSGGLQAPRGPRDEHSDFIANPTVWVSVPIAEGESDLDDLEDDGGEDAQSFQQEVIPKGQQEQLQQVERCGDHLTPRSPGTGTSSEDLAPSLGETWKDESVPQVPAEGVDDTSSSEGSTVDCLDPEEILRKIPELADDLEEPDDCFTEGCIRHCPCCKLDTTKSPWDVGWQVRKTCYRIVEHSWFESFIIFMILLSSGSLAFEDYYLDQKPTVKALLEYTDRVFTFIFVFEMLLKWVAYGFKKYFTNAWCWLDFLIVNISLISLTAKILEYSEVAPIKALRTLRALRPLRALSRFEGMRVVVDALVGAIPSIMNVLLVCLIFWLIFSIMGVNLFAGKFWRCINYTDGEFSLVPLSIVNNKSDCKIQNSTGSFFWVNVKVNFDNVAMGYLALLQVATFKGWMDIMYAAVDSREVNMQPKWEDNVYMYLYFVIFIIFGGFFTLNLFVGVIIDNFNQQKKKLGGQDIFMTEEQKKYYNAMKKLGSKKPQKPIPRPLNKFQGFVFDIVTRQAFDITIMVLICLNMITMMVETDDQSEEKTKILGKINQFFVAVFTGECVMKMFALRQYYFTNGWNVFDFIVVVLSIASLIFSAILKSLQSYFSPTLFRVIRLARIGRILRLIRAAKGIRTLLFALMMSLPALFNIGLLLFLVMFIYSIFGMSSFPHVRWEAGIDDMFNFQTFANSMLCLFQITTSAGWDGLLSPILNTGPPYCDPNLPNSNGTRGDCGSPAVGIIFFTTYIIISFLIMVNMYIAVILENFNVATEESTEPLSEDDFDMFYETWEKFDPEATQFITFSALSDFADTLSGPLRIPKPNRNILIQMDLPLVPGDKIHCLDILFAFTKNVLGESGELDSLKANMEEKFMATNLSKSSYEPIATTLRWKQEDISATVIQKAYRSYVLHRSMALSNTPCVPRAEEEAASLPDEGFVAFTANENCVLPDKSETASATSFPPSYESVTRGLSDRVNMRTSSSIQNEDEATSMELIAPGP

Row | IC50 [nM] | SMILES
1 | 103 | CC1(C)CO[C@@H](C(F)(F)F)CN(c2ncc(C(F)(F)F)cc2C(=O)Nc2ccnc(S(N)(=O)=O)c2)C1 [Example 106, 2-[(2R)-6,6-dimethyl-2-(trifluoromethyl)-1,4-oxazepan-4-yl]-N-(2-sulfamoyl-4-pyridyl)-5-(trifluoromethyl)pyridine-3-carboxamide]
2 | 59 | NS(=O)(=O)c1cc(NC(=O)c2cc(C#CC3CC3)c(C(F)(F)F)nc2N2CCC(F)(F)CC2)ccn1 [Example 44, 5-(cyclopropylethynyl)-2-(4,4-difluoropiperidin-1-yl)-N-(2-sulfamoylpyridin-4-yl)-6-(trifluoromethyl)nicotinamide]
3 | 60 | CC1CN(c2ncc(C(F)(F)F)cc2C(=O)Nc2ccnc(C#N)c2)CCC1(F)F (single isomer, unassigned) [Example 155, (R or S)-N-(2-cyanopyridin-4-yl)-2-(4,4-difluoro-3-methylpiperidin-1-yl)-5-(trifluoro-methyl)nicotinamide]
4 | 9330 | CC1(C)c2cc(F)ccc2CN1c1ncc(C(F)(F)F)cc1C(=O)Nc1ccnc(S(N)(=O)=O)c1 [Example 113, 2-(6-fluoro-1,1-dimethyl-isoindolin-2-yl)-N-(2-sulfamoyl-4-pyridyl)-5-(trifluoromethyl)pyridine-3-carboxamide]
5 | 2370 | NS(=O)(=O)c1cc(NC(=O)c2cc(C(F)(F)F)cnc2N2CCC(Oc3cccc(C(F)(F)F)c3)CC2)ccn1 [Example 98, N-(2-sulfamoyl-4-pyridyl)-5-(trifluoromethyl)-2-[4-[3-(trifluoromethyl)phenoxy]-1-piperidyl]pyridine-3-carboxamide]
6 | 4.1 | Cc1ccc(C(=O)Nc2ccnc(S(N)(=O)=O)c2)c(N2CCCC(F)(F)C(F)C2)n1 (stereo not shown) [Example 40, 6-methyl-N-(2-sulfamoylpyridin-4-yl)-2-(3,4,4-trifluoroazepan-1-yl)nicotinamide]
7 | 82 | NS(=O)(=O)c1cc(NC(=O)c2cc(C(F)(F)F)cnc2N2CCC3C(C2)C3(F)F)ccn1 (single isomer, unassigned) [Example 69, 2-((1S,6S or 1R,6R)-7,7-difluoro-3-azabicyclo[4.1.0]heptan-3-yl)-N-(2-sulfamoylpyridin-4-yl)-5-(trifluoromethyl)nicotinamide]
8 | 31 | CC1CCCN(c2ncc(C(F)(F)F)cc2C(=O)Nc2ccnc(S(N)(=O)=O)c2)C1 (single isomer, unassigned) [Example 57, (R or S)-2-(3-methylpiperidin-1-yl)-N-(2-sulfamoylpyridin-4-yl)-5-(trifluoromethyl)nicotinamide]
9 | 6.6 | Cc1nc(C2CCC(C)CC2)c(C(=O)Nc2ccnc(S(N)(=O)=O)c2)c(C)c1Cl (stereo not shown) [Example 215, 5-chloro-4,6-dimethyl-2-(4-methylcyclohexyl)-N-(2-sulfamoylpyridin-4-yl)nicotinamide]
10 | 27 | C[C@@H]1CN(c2ncc(C(F)(F)F)cc2C(=O)Nc2ccnc(S(N)(=O)=O)c2)C[C@@H](C(F)(F)F)O1 [Example 102, 2-((2R,6S)-2-methyl-6-(trifluoromethyl)morpholino)-N-(2-sulfamoylpyridin-4-yl)-5-(trifluoromethyl)nicotinamide]
11 | 616 | NS(=O)(=O)c1cc(NC(=O)c2cc(C(F)(F)F)cnc2N2CCOC(c3ccc(C(F)(F)F)cc3)C2)ccn1 (stereo not shown) [Example 91, N-(2-sulfamoyl-4-pyridyl)-5-(trifluoromethyl)-2-[2-[4-(trifluoromethyl)phenyl]morpholin-4-yl]pyridine-3-carboxamide]
12 | 1.9 | Cc1nc(N2CCC3(CC2)CC3)c(C(=O)Nc2ccnc(S(N)(=O)=O)c2)c(C)c1Cl [Example 202, 5-chloro-4,6-dimethyl-2-(6-azaspiro[2.5]octan-6-yl)-N-(2-sulfamoylpyridin-4-yl)nicotinamide]
13 | 25 | NS(=O)(=O)c1cc(NC(=O)c2cc(C(F)(F)F)cnc2N2CCCC3(C2)CC3(F)F)ccn1 (single isomer, unassigned) [Example 67, (S or R)-2-(1,1-difluoro-5-azaspiro[2.5]octan-5-yl)-N-(2-sulfamoylpyridin-4-yl)-5-(trifluoromethyl)nicotinamide]
